# Publication PMC10620772, “Design, synthesis, and biological evaluation of new pyrimidine-5-carbonitrile derivatives as novel anti-cancer, dual EGFR^WT/COX-2 inhibitors with docking studies” (RSC Advances, 2023)
# What was measured:
# [1] = test system: MALME-3M; set-up: method as in PMID 32115728, PMID 32959865; conditions: cited from earlier work
# [2] = set-up: method as in PMID 26764192, PMID 22249410, PMID 21414695; conditions: cited from earlier work
# [3] = test system: MCF7; test: NCI60 antitumor screening; format: cell-based, human; conditions: 10 μM one-dose
# [4] = test system: SNB-75; test: NCI60 antitumor screening; format: cell-based, human; conditions: 10 μM one-dose
# [5] = test system: SW-620; test: NCI60 antitumor screening; format: cell-based, human; conditions: 10 μM one-dose
# [6] = test system: OVCAR-8; test: NCI60 antitumor screening; format: cell-based, human; conditions: 10 μM one-dose
# [7] = test system: MDA-MB-468; test: NCI60 antitumor screening; format: cell-based, human; conditions: 10 μM one-dose
# [8] = test system: HL-60(TB); test: NCI60 antitumor screening; format: cell-based, human; conditions: 10 μM one-dose
# [9] = test system: OVCAR-5; test: NCI60 antitumor screening; format: cell-based, human; conditions: 10 μM one-dose
# [10] = test system: MDA-MB-231/ATCC; test: NCI60 antitumor screening; format: cell-based, human; conditions: 10 μM one-dose
# [11] = test system: SK-OV-3; test: NCI60 antitumor screening; format: cell-based, human; conditions: 10 μM one-dose
# [12] = test system: NCI-H522; test: NCI60 antitumor screening; format: cell-based, human; conditions: 10 μM one-dose
# [13] = test system: CCRF-CEM; test: NCI60 antitumor screening; format: cell-based, human; conditions: 10 μM one-dose
# [14] = test system: U251; test: NCI60 antitumor screening; format: cell-based, human; conditions: 10 μM one-dose
# [15] = test system: IGROV1; test: NCI60 antitumor screening; format: cell-based, human; conditions: 10 μM one-dose
# [16] = test system: SR; test: NCI60 antitumor screening; format: cell-based, human; conditions: 10 μM one-dose
# [17] = test system: NCI60 cell lines panel; test: NCI60 antitumor screening, full panel; format: cell-based, human; conditions: 10 μM one-dose, mean over NCI60
# Method in brief: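 Single-concentration screen at 10 μM across the NCI60 panel (leukaemia, NSCLC, colon, CNS, melanoma, ovarian, renal, prostate, breast). Results are expressed as percent growth inhibition (GI%) of treated lines.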
# [18] = test system: A549/ATCC; test: NCI60 antitumor screening; format: cell-based, human; conditions: 10 μM one-dose
# [19] = test system: LOX IMVI; test: NCI60 antitumor screening; format: cell-based, human; conditions: 10 μM one-dose
# [20] = test system: RXF 393; test: NCI60 antitumor screening; format: cell-based, human; conditions: 10 μM one-dose
# [21] = test system: NCI-H226; test: NCI60 antitumor screening; format: cell-based, human; conditions: 10 μM one-dose
# [22] = test system: SNB-19; test: NCI60 antitumor screening; format: cell-based, human; conditions: 10 μM one-dose
# [23] = test system: SN12C; test: NCI60 antitumor screening; format: cell-based, human; conditions: 10 μM one-dose
# [24] = test system: PC-3; test: NCI60 antitumor screening; format: cell-based, human; conditions: 10 μM one-dose
# [25] = test system: SK-MEL-28; test: NCI60 antitumor screening; format: cell-based, human; conditions: 10 μM one-dose
# [26] = test system: SF-295; test: NCI60 antitumor screening; format: cell-based, human; conditions: 10 μM one-dose
# [27] = test system: SF-268; test: NCI60 antitumor screening; format: cell-based, human; conditions: 10 μM one-dose
# [28] = test system: HOP-92; test: NCI60 antitumor screening; format: cell-based, human; conditions: 10 μM one-dose
# [29] = test system: NCI-H460; test: NCI60 antitumor screening; format: cell-based, human; conditions: 10 μM one-dose
# [30] = test system: HCT-116; test: NCI60 antitumor screening; format: cell-based, human; conditions: 10 μM one-dose
# [31] = test system: NCI-H322M; test: NCI60 antitumor screening; format: cell-based, human; conditions: 10 μM one-dose
# [32] = test system: K-562; test: NCI60 antitumor screening; format: cell-based, human; conditions: 10 μM one-dose
# [33] = test system: MOLT-4; test: NCI60 antitumor screening; format: cell-based, human; conditions: 10 μM one-dose
# [34] = test system: SF-539; test: NCI60 antitumor screening; format: cell-based, human; conditions: 10 μM one-dose
# [35] = test system: OVCAR-4; test: NCI60 antitumor screening; format: cell-based, human; conditions: 10 μM one-dose
# [36] = test system: TK-10; test: NCI60 antitumor screening; format: cell-based, human; conditions: 10 μM one-dose
# [37] = test system: HT29; test: NCI60 antitumor screening; format: cell-based, human; conditions: 10 μM one-dose
# [38] = test system: BT-549; test: NCI60 antitumor screening; format: cell-based, human; conditions: 10 μM one-dose
# [39] = test system: ACHN; test: NCI60 antitumor screening; format: cell-based, human; conditions: 10 μM one-dose
# [40] = test system: EKVX; test: NCI60 antitumor screening; format: cell-based, human; conditions: 10 μM one-dose
# [41] = test system: CAKI-1; test: NCI60 antitumor screening; format: cell-based, human; conditions: 10 μM one-dose
# [42] = test system: DU-145; test: NCI60 antitumor screening; format: cell-based, human; conditions: 10 μM one-dose
# [43] = test system: HCT-15; test: NCI60 antitumor screening; format: cell-based, human; conditions: 10 μM one-dose
# [44] = test system: HCC-2998; test: NCI60 antitumor screening; format: cell-based, human; conditions: 10 μM one-dose
# [45] = test system: 786–0; test: NCI60 antitumor screening; format: cell-based, human; conditions: 10 μM one-dose
# [46] = test system: HS 578T; test: NCI60 antitumor screening; format: cell-based, human; conditions: 10 μM one-dose
# [47] = test system: RPMI-8226; test: NCI60 antitumor screening; format: cell-based, human; conditions: 10 μM one-dose
# [48] = test system: A498; test: NCI60 antitumor screening; format: cell-based, human; conditions: 10 μM one-dose
# [49] = test system: HOP-62; test: NCI60 antitumor screening; format: cell-based, human; conditions: 10 μM one-dose
# [50] = test system: UACC-257; test: NCI60 antitumor screening; format: cell-based, human; conditions: 10 μM one-dose
# [51] = test system: M14; test: NCI60 antitumor screening; format: cell-based, human; conditions: 10 μM one-dose
# [52] = test system: UO-31; test: NCI60 antitumor screening; format: cell-based, human; conditions: 10 μM one-dose
# [53] = test system: NCI-H23; test: NCI60 antitumor screening; format: cell-based, human; conditions: 10 μM one-dose
# [54] = test system: SK-MEL-5; test: NCI60 antitumor screening; format: cell-based, human; conditions: 10 μM one-dose
# [55] = test system: NCI/ADR-RES; test: NCI60 antitumor screening; format: cell-based, human; conditions: 10 μM one-dose
# [56] = test system: KM12; test: NCI60 antitumor screening; format: cell-based, human; conditions: 10 μM one-dose
# [57] = test system: OVCAR-3; test: NCI60 antitumor screening; format: cell-based, human; conditions: 10 μM one-dose
# [58] = test system: MALME-3M; test: NCI60 antitumor screening; format: cell-based, human; conditions: 10 μM one-dose
# [59] = test system: T-47D; test: NCI60 antitumor screening; format: cell-based, human; conditions: 10 μM one-dose
# [60] = test system: MDA-MB-435; test: NCI60 antitumor screening; format: cell-based, human; conditions: 10 μM one-dose
# [61] = test system: UACC-62; test: NCI60 antitumor screening; format: cell-based, human; conditions: 10 μM one-dose
# [62] = test system: SK-MEL-2; test: NCI60 antitumor screening; format: cell-based, human; conditions: 10 μM one-dose
# [63] = test system: COLO 205; test: NCI60 antitumor screening; format: cell-based, human; conditions: 10 μM one-dose
structure (smiles),measurement,setting,value
CC(C)CSc1nc(Nc2ccc(C(=O)O)cc2)c(C#N)c(-c2ccccc2)n1 [F],GI value,[1],152.04%
COc1ccc(-c2nc(-c3ccc(Cl)cc3)[nH]c(=O)c2C#N)cc1 [I],antinociceptive activity compared to control,[2],more than 88%
"N#Cc1c(-c2ccc(F)cc2)nc(SCc2ccccc2)nc1N1CCOCC1 [4a, 2-(Benzylthio)-4-(4-fluorophenyl)-6-morpholinopyrimidine-5-carbonitrile]",GI%,[3],— (GI% < 10)
same,GI%,[4],— (GI% < 10)
same,GI%,[5],— (GI% < 10)
same,GI%,[6],21.20%
same,GI%,[7],— (GI% < 10)
same,GI%,[8],31.31%
same,GI%,[9],— (GI% < 10)
same,GI%,[10],10.65%
same,GI%,[11],— (GI% < 10)
same,GI%,[12],16.81%
same,GI%,[13],— (GI% < 10)
same,GI%,[14],— (GI% < 10)
same,GI%,[15],— (GI% < 10)
same,GI%,[16],— (GI% < 10)
same,Mean GI%,[17],— (GI% < 10)
same,GI%,[18],— (GI% < 10)
same,GI%,[19],— (GI% < 10)
same,GI%,[20],— (GI% < 10)
same,GI%,[21],— (GI% < 10)
same,GI%,[22],— (GI% < 10)
same,GI%,[23],— (GI% < 10)
same,GI%,[24],— (GI% < 10)
same,GI%,[25],— (GI% < 10)
same,GI%,[26],— (GI% < 10)
same,GI%,[27],— (GI% < 10)
same,GI%,[28],15.08%
same,GI%,[29],— (GI% < 10)
same,GI%,[30],10.37%
same,GI%,[31],— (GI% < 10)
same,GI%,[32],16.46%
same,GI%,[33],— (GI% < 10)
same,GI%,[34],16.91%
same,GI%,[35],— (GI% < 10)
same,GI%,[36],— (GI% < 10)
same,GI%,[37],— (GI% < 10)
same,GI%,[38],19.15%
same,GI%,[39],— (GI% < 10)
same,GI%,[40],— (GI% < 10)
same,GI%,[41],— (GI% < 10)
same,GI%,[42],— (GI% < 10)
same,GI%,[43],— (GI% < 10)
same,GI%,[44],— (GI% < 10)
same,GI%,[45],— (GI% < 10)
same,GI%,[46],19.87%
same,GI%,[47],— (GI% < 10)
same,GI%,[48],— (GI% < 10)
same,GI%,[49],— (GI% < 10)
same,GI%,[50],— (GI% < 10)
same,GI%,[51],— (GI% < 10)
same,GI%,[52],— (GI% < 10)
same,GI%,[53],— (GI% < 10)
same,GI%,[54],— (GI% < 10)
same,GI%,[55],10.32%
same,GI%,[56],— (GI% < 10)
same,GI%,[57],— (GI% < 10)
same,GI%,[58],— (GI% < 10)
same,GI%,[59],15.89%
same,GI%,[60],— (GI% < 10)
same,GI%,[61],13.24%
same,GI%,[62],— (GI% < 10)
same,GI%,[63],— (GI% < 10)
